# Reference: paper PMC6352943, “Novel pyrazolo[3,4-d]pyrimidines: design, synthesis, anticancer activity, dual EGFR/ErbB2 receptor tyrosine kinases inhibitory activity, effects on cell cycle profile and caspase-3-mediated apoptosis” (Journal of Enzyme Inhibition and Medicinal Chemistry, 2019)
# Assays:
# [1] = test system: NCI-H226; assay: MTT cell viability assay; type: cell-based; conditions: Homo sapiens, NCI-H226 lung cancer, 48 h, mean ± SD of three experiments, read-out: IC50 (concentration required for 50% inhibition of cell viability)
# Protocol: (§1) Cell Line cells were obtained from American Type Culture Collection, cells were cultured using Dulbecco's Modified Eagle's medium (DMEM) (Invitrogen/Life Technologies) supplemented with 10% foetal bovine serum (FBS) (Hyclone), 10 μg/mL of insulin (Sigma), and 1% penicillin-streptomycin. All of the other chemicals and reagents were from Sigma, or Invitrogen. Plate cells (cells density 1.2 – 1.8 × 10,000 cells/well) in a volume of 100 µL complete growth medium and 100 μL of the tested compound per well in a 96-well plate for 24 h before the MTT assay.
# Remove culture medium to a centrifuge tube. […] Add 2.0 to 3.0 ml of Trypsin EDTA solution to flask and observe cells under an inverted microscope until cell layer is dispersed. Add 6 to 8 ml of complete growth medium and aspirate cells by gently pipetting. […]
# The 3–(4, 5-dimethylthiazol-2-yl)-2,5-diphenyltetrazolium bromide (MTT) method[30] of monitoring in vitro cytotoxicity is well suited for use with multiwell plates. […] The number of living cells in the presence or absence (control) of the various test compounds is directly proportional to the intensity of the blue colour, measured by spectrophotometry using (ROBONIK P2000 Spectrophotometer) at a wavelength of 570 nm. Measure the background absorbance of multiwell plates at 690 nm and subtract from the 570 nm measurement. […]
# [2] = test system: ACHN; assay: MTT cell viability assay; type: cell-based, human
# Protocol: as §1
# (§2) Remove culture medium to a centrifuge tube. […] Add 2.0 to 3.0 ml of Trypsin EDTA solution to flask and observe cells under an inverted microscope until cell layer is dispersed. Add 6 to 8 ml of complete growth medium and aspirate cells by gently pipetting. Transfer the cell suspension to the centrifuge tube with the medium and centrifuge for 5 to 10 min. Discard the supernatant. Resuspend the cell pellet in fresh growth medium. Add appropriate aliquots of the cell suspension to new culture vessels. Incubate cultures at 37 °C for 24 h. After treatment of cells with the serial concentrations of the compound to be tested incubation is carried out for 48 h at 37 °C, then the plates are to be examined under the inverted microscope and proceed for the MTT assay.
# (§3) The 3–(4, 5-dimethylthiazol-2-yl)-2,5-diphenyltetrazolium bromide (MTT) method[30] of monitoring in vitro cytotoxicity is well suited for use with multiwell plates. The assessment of cell population growth is based on the capability of living cells to reduce the yellow product MTT to a blue product, formazan, by a reduction reaction occurring in the mitochondria. The five cell lines were incubated for 24 h in 96-microwell plates. The number of living cells in the presence or absence (control) of the various test compounds is directly proportional to the intensity of the blue colour, measured by spectrophotometry using (ROBONIK P2000 Spectrophotometer) at a wavelength of 570 nm. Measure the background absorbance of multiwell plates at 690 nm and subtract from the 570 nm measurement. Five concentrations ranging from 0.01 μM to 100 μM (with semi-log decrease in concentration) were tested for each of the compounds under study. Each experiment was carried out in triplicate. The IC50 values [the concentration required for 50% inhibition of cell viability] were calculated using sigmoidal dose response curve-fitting models.
# [3] = test system: NCI-H460; assay: MTT cell viability assay; type: cell-based, human
# Protocol: as §1, §2, §3
# [4] = test system: OVCAR-4; assay: MTT cell viability assay; type: cell-based, human
# Protocol: as §1, §2, §3
# [5] = test system: OVCAR-4 cells; assay: Annexin V-FITC/PI apoptosis assay; type: cell-based, human
# Protocol: Annexin V fluorescein isothiocyanate (FITC)/PI apoptosis detection kit (BD Biosciences) was used according to the manufacturer’s instructions to measure the apoptotic activity of compound 7d. OVCAR-4 cells were incubated with Annexin V-FITC. […] The cells then were collected by trypsinisation and 0.5 × 10^6 cells were washed twice with PBS and stained with 5 μL Annexin V-FITC and 5 μL PI in 1 × binding buffer for 15 min at room temperature in the dark. Analyses were performed using FACS Calibur flow cytometer (BD Biosciences, San Jose, CA).
# The apoptotic activity of compound 7d was further studied using Annexin V-FITC assay, which includes dual staining using Annexin V, a Ca^2+-dependent protein, and Propidium iodide (PI). Annexin V binds to phosphatidylserine (PS) expressed only on the surface of the apoptotic cells and fluoresces green after interacting with the fluorochrome labelled annexin-V. On the other hand, PI stains DNA and enters only dead cells. This assay can give a differential analysis to the percentages of living, early apoptotic, late apoptotic and necrotic cells. […] Moreover, a significant increase in the percentage of Annexin-V positive cells (almost 9 folds more than control) occurred indicating an early apoptosis (lower right quadrant). In addition, an increase by 7 folds more than control in the percentage of PI positive cells (upper left quadrant) indicating necrotic cells. Some treated cells were in a late apoptotic stage (upper right quadrant), this was indicated by the significant increase in the percentage of Annexin V positive, PI positive cells (16 folds more than control).
compound,measurement,setting,value
"Cc1nn(-c2ccc(F)cc2)c2ncnc(Nc3ccc(F)c(Cl)c3)c12 [Compound 7d, N-(3-Chloro-4-fluorophenyl)-1–(4-fluorophenyl)-3-methyl-1H-pyrazolo[3,4-d] pyrimidin-4-amine]",IC50,[1],17.4 ± 2.13 µM
same,Potency relative to Erlotinib (fold more potent),"[2]; ACHN, from IC50 values",2.2 fold
same,IC50,"[2]; Homo sapiens, ACHN renal cancer, MTT, 48 h, mean ± SD of three experiments, read-out: IC50 (concentration required for 50% inhibition of cell viability)",5.53 ± 0.31 µM
same,IC50,"[3]; Homo sapiens, NCI-H460 lung cancer, MTT, 48 h, mean ± SD of three experiments, read-out: IC50 (concentration required for 50% inhibition of cell viability)",4.44 ± 0.26 µM
same,Potency relative to Erlotinib (fold more potent),"[3]; NCI-H460, from IC50 values",1.9 fold
same,IC50,"[4]; Homo sapiens, OVCAR-4 ovarian cancer, MTT, 48 h, mean ± SD of three experiments, read-out: IC50 (concentration required for 50% inhibition of cell viability)",1.74 ± 0.06 µM
same,Potency relative to Erlotinib (fold more potent),"[4]; OVCAR-4, from IC50 values",1.6 fold
same,%Apoptosis Early,"[5]; OVCAR-4, 7d at IC50 (1.74 μM), 24 h, lower right quadrant",7.52%
same,%Necrosis,"[5]; OVCAR-4, 7d at IC50 (1.74 μM), 24 h, upper left quadrant",2.88%
same,%Apoptosis Late,"[5]; OVCAR-4, 7d at IC50 (1.74 μM), 24 h, upper right quadrant",11.31%
same,"Increase in percentage of Annexin V positive, PI positive cells (late apoptosis) versus control","[5]; OVCAR-4, at IC50, 24 h",16 folds
same,Increase in percentage of Annexin-V positive cells (early apoptosis) versus control,"[5]; OVCAR-4, at IC50, 24 h",~9 folds
same,Increase in percentage of PI positive cells (necrotic cells) versus control,"[5]; OVCAR-4, at IC50, 24 h",7 folds
